From the supplement of paper PMC10627819

Assays:
B. subtilis 168 [1] = test: fitness (endpoint OD595 vs no drug) (fraction); higher = more growth
Summary of the method: (§1)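 Cultures at OD595 0.01 were dispensed into 384-well plates in TSB, LB Lennox or CY and incubated at 37 °C. Every 30 min for 14 h, OD595 was read and corrected by the first reading. Fitness is the optical density at entry into stationary phase relative to the robust mean of no-drug control wells, capped at 1.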

S. pneumoniae D39V [2] = test: as above
Summary of the method: as §1

B. subtilis 168 [3] = test: Bliss interaction score (quartile over a dose matrix) (fitness difference); higher = more antagonism (negative = synergy)
Summary of the method: (§2)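 The Bliss score subtracts expected fitness, the product of the single-drug fitness values, from observed fitness. Fitness is plate-normalised OD595 at entry into stationary phase, relative to the robust no-drug mean and capped at 1, with single-drug fitness inferred from combinations. Summaries are quartiles over technical, biological and donor/recipient replicates.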

S. aureus DSM 20231 = test: as above
Summary of the method: as §2

S. aureus Newman = test: as above
Summary of the method: as §2

S. pneumoniae D39V [4] = test: as above
Summary of the method: as §2

[5] = first compound 1 µg/mL, partner 0.125 µg/mL, one replicate
[6] = first compound 1 µg/mL, partner 0.25 µg/mL, one replicate
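Throughout, for Bliss interaction score (quartile over a dose matrix): first quartile when negative (synergy) and third quartile when positive (antagonism).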

## CC1=C(C(=O)O)N2C(=O)[C@@H](NC(=O)[C@H](N)c3ccccc3)[C@H]2SC1 [Cephalexin] + CC(=O)NC[C@H]1CN(c2ccc(N3CCOCC3)c(F)c2)C(=O)O1 [Linezolid]
B. subtilis 168 [1]; first compound 0.125 µg/mL, partner 0.125 µg/mL
  fitness: 0.569
B. subtilis 168 [1]; first compound 0.125 µg/mL, partner 0.25 µg/mL
  fitness: 0.121
B. subtilis 168 [1]; first compound 0.125 µg/mL, partner 0.5 µg/mL
  fitness: 0.0468
B. subtilis 168 [1]; first compound 0.25 µg/mL, partner 0.0625 µg/mL, one replicate
  fitness: 0.901
B. subtilis 168 [1]; first compound 0.25 µg/mL, partner 0.125 µg/mL
  fitness: 0.582
B. subtilis 168 [1]; first compound 0.25 µg/mL, partner 0.25 µg/mL
  fitness: 0.119
B. subtilis 168 [1]; first compound 0.25 µg/mL, partner 0.5 µg/mL
  fitness: 0.0463
B. subtilis 168 [1]; first compound 0.5 µg/mL, partner 0.0625 µg/mL, one replicate
  fitness: 0.932
B. subtilis 168 [1]; first compound 0.5 µg/mL, partner 0.125 µg/mL
  fitness: 0.601
B. subtilis 168 [1]; first compound 0.5 µg/mL, partner 0.25 µg/mL
  fitness: 0.117
B. subtilis 168 [1]; first compound 0.5 µg/mL, partner 0.5 µg/mL
  fitness: 0.0421
B. subtilis 168 [1]; first compound 1 µg/mL, partner 0.0625 µg/mL, one replicate
  fitness: 0.877
B. subtilis 168 [1]; [5]
  fitness: 0.66
B. subtilis 168 [1]; [6]
  fitness: 0.0828
S. pneumoniae D39V [2]; first compound 0.125 µg/mL, partner 0.2 µg/mL, one replicate
  fitness: 0.778
S. pneumoniae D39V [2]; first compound 0.125 µg/mL, partner 0.4 µg/mL, one replicate
  fitness: 0.667
S. pneumoniae D39V [2]; first compound 0.125 µg/mL, partner 0.8 µg/mL, one replicate
  fitness: 0.222
S. pneumoniae D39V [2]; first compound 0.25 µg/mL, partner 0.2 µg/mL, one replicate
  fitness: 0.84
S. pneumoniae D39V [2]; first compound 0.25 µg/mL, partner 0.4 µg/mL, one replicate
  fitness: 0.707
S. pneumoniae D39V [2]; first compound 0.25 µg/mL, partner 0.8 µg/mL, one replicate
  fitness: 0.36
S. pneumoniae D39V [2]; first compound 0.5 µg/mL, partner 0.2 µg/mL, one replicate
  fitness: 0.829
S. pneumoniae D39V [2]; first compound 0.5 µg/mL, partner 0.4 µg/mL, one replicate
  fitness: 0.726
S. pneumoniae D39V [2]; first compound 0.5 µg/mL, partner 0.8 µg/mL, one replicate
  fitness: 0.375
S. pneumoniae D39V [2]; first compound 1 µg/mL, partner 0.105 µg/mL
  fitness: 0.606
S. pneumoniae D39V [2]; first compound 1 µg/mL, partner 0.21 µg/mL
  fitness: 0.475
S. pneumoniae D39V [2]; first compound 1 µg/mL, partner 0.42 µg/mL
  fitness: 0.332
S. pneumoniae D39V [2]; first compound 2 µg/mL, partner 0.105 µg/mL
  fitness: 0.0569
S. pneumoniae D39V [2]; first compound 2 µg/mL, partner 0.21 µg/mL
  fitness: 0.0291
S. pneumoniae D39V [2]; first compound 2 µg/mL, partner 0.42 µg/mL
  fitness: 0.0014
S. pneumoniae D39V [2]; first compound 4 µg/mL, partner 0.105 µg/mL
  fitness: 0.0509
S. pneumoniae D39V [2]; first compound 4 µg/mL, partner 0.21 µg/mL
  fitness: 0
S. pneumoniae D39V [2]; first compound 4 µg/mL, partner 0.42 µg/mL
  fitness: 0.0511
B. subtilis 168 [3]
  Bliss interaction score: 0.0768
S. aureus DSM 20231
  Bliss interaction score: 0.0858
S. aureus Newman
  Bliss interaction score: 0.106
S. pneumoniae D39V [4]
  Bliss interaction score: -0.075

## CC1=C(C(=O)O)N2C(=O)[C@@H](NC(=O)[C@H](N)c3ccccc3)[C@H]2SC1 [Cephalexin] + CO[C@@H]1[C@@H](OC(N)=O)[C@@H](O)[C@H](Oc2ccc3c(O)c(NC(=O)c4ccc(O)c(CC=C(C)C)c4)c(=O)oc3c2C)OC1(C)C [Novobiocin]
B. subtilis 168 [1]; first compound 0.125 µg/mL, partner 0.0125 µg/mL
  fitness: 0.97
B. subtilis 168 [1]; first compound 0.125 µg/mL, partner 0.025 µg/mL
  fitness: 0.918
B. subtilis 168 [1]; first compound 0.125 µg/mL, partner 0.05 µg/mL
  fitness: 0.984
B. subtilis 168 [1]; first compound 0.25 µg/mL, partner 0.0125 µg/mL
  fitness: 0.978
B. subtilis 168 [1]; first compound 0.25 µg/mL, partner 0.025 µg/mL
  fitness: 0.936
B. subtilis 168 [1]; first compound 0.25 µg/mL, partner 0.05 µg/mL
  fitness: 0.972
B. subtilis 168 [1]; first compound 0.25 µg/mL, partner 0.125 µg/mL, one replicate
  fitness: 0.95
B. subtilis 168 [1]; first compound 0.25 µg/mL, partner 0.25 µg/mL, one replicate
  fitness: 0.857
B. subtilis 168 [1]; first compound 0.25 µg/mL, partner 0.5 µg/mL, one replicate
  fitness: 0.603
B. subtilis 168 [1]; first compound 0.5 µg/mL, partner 0.0125 µg/mL
  fitness: 0.98
B. subtilis 168 [1]; first compound 0.5 µg/mL, partner 0.025 µg/mL
  fitness: 0.93
B. subtilis 168 [1]; first compound 0.5 µg/mL, partner 0.05 µg/mL
  fitness: 0.97
B. subtilis 168 [1]; first compound 0.5 µg/mL, partner 0.125 µg/mL, one replicate
  fitness: 0.839
B. subtilis 168 [1]; first compound 0.5 µg/mL, partner 0.25 µg/mL, one replicate
  fitness: 0.866
B. subtilis 168 [1]; first compound 0.5 µg/mL, partner 0.5 µg/mL, one replicate
  fitness: 0.49
B. subtilis 168 [1]; [5]
  fitness: 0.946
B. subtilis 168 [1]; [6]
  fitness: 0.926
B. subtilis 168 [1]; first compound 1 µg/mL, partner 0.5 µg/mL, one replicate
  fitness: 0.593
B. subtilis 168 [3]
  Bliss interaction score: 0.0738
S. aureus DSM 20231
  Bliss interaction score: 0.0648
S. aureus Newman
  Bliss interaction score: 0.0794
S. pneumoniae D39V [4]
  Bliss interaction score: -0.0986
